Laboratory results taken from PMC8234864, “Early Effects of the Soluble Amyloid β25-35 Peptide in Rat Cortical Neurons: Modulation of Signal Transduction Mediated by Adenosine and Group I Metabotropic Glutamate Receptors” (International Journal of Molecular Sciences, 2021).
Where no end group is shown, it is not given here.

Experiments:
Type in all cases: cell-based, rat
CREM gene expression = CREM gene expression by real-time PCR; settings: 25 µM, 24 or 48 h
Experimental: (§1) Total RNA was extracted using an ABI 6100 Nucleic Acid PrepStation according to the manufacturer’s protocol (Applied Biosystems Inc., Foster City, CA, USA). Total RNA from cells was isolated and stored at −80 °C. The quality of isolated RNA was estimated by the ratio A260/A280 and was in the range of 1.9–2.1. RNA integrity was evaluated by agarose gel electrophoresis according to MIQE guidelines using the “bleach gel” method. RNA concentrations were determined from the A260. One microgram of total RNA was reverse transcribed using Applied Biosystems High-Capacity cDNA Archive Kit.
(§2) To assess relative gene expression in neurons, quantitative real-time RT-PCR analysis was performed with an Applied Biosystems Prism 7500 Fast Sequence Detection System using TaqMan® universal PCR master mix according to the manufacturer’s specifications. […] Levels of RNA expression were determined using the 7500 Fast System SDS software version 1.3.1 (Applied Biosystems) according to the 2^−ΔΔCt method. […] The results from three independent repeat assays, performed in different plates each using different cDNA’s from the cultures analyzed, were averaged to produce a single mean quantity value for each mRNA.

CREB gene expression = CREB gene expression by real-time PCR; settings: 25 µM, 24 or 48 h
Experimental: as §1, §2

[1] = system: mGluR1 (GRM1) gene expression; assay: mGluR1 gene expression by real-time PCR; settings: 25 µM, 24 or 48 h, vs control neurons
Experimental: as §1, §2

[2] = system: A2AR (ADORA2A) gene expression; assay: A2AR gene expression by real-time PCR; settings: 25 µM, 24 or 48 h
Experimental: as §1, §2

mGluR2,3 = assay: Extracellular immunostaining of mGluR2,3 in non-permeabilized neurons; settings: 25 µM, 24 h
Experimental: The quantitative analysis of the levels of Group I mGluR and mGluR2,3 at the plasma membrane was performed with extracellular targeted polyclonal antibodies (mGluR1, mGluR5 and mGluR2,3, Alomone Labs, Jerusalem, Israel), as previously described with minor modifications. Briefly, after 2 weeks in culture, the culture medium was removed and cells washed with Locke Buffer (LB, pH 7.4). Cells were then fixed with 4% paraformaldehyde for 10 min at room temperature and washed with three 10-min intervals with LB.
Nonspecific staining was suppressed by blocking with 3% normal goat serum in LB for 60 min. […]
To evaluate the degree of fluorescence intensity in cortical neurons, fluorescence was measured to estimate the protein expression in the different experimental conditions analyzed. Images (448.6 µm × 335.08 µm) obtained with a digital camera (Leica DFC350FX R2), attached to a Leica DMI6000B (Leica Microsystems, Wetzlar, Germany) fluorescent microscope, were used for quantification (20x HCX PL FLUOTAR 0.4 dry objective). […] Fluorescence intensity was estimated by averaging mean grey values. […] Data were normalized to the total number of cells in the analyzed fields. The mean fluorescence background, calculated in the unstained regions between neurons, was subtracted from the fluorescence intensity of each data point. […]

With GSNKGAIIGLM [Aβ25-35] the CREM gene expression (CREM gene expression) was “decrease”, the CREB gene expression (CREB gene expression) was “decrease” and the mGluR1 gene expression [1] was “increase”. The A2AR gene expression [2] was “significantly increased” and the “mGluR2,3 density at the membrane surface of cell bodies” value (mGluR2,3) was “decrease”.
